Measurements published in patent US8586527B2, “Cerivastatin to treat pulmonary disorders” (priority 2011, dated 2013).

What was measured:
[1] = test system: pulmonary aterial hypertension; conditions: injected intraperitoneally; cited from earlier work
DDAH1 = DDAH1 gene expression (real-time RT-PCR) in endothelial cells; assay type: cell-based; conditions: human umbilical endothelial cells, 24 hours, FIG. 1A
Protocol: (§1) Human umbilical endothelial cells were seeded in 6-well plates (50,000 cells per well) and incubated with EGM (endothelial cell growth medium with bullet kit, Lonza) overnight. Then, triplicate wells were treated with indicated concentrations of cerivastatin in 2 ml of EGM. After 24 hours, total RNA was extracted using the RNeasy Kit (Qiagen, Valencia, Calif. After reverse transcription (RT) using the High Capacity cDNA Reverse Transcription Kit (Applied Biosystems, Foster City, Calif.), PCR was performed using an ABI Prism 7500 Sequence Detection System (Applied Biosystems, Foster City, Calif.) and QuantiTect SYBR Green PCR Master Mix (Qiagen, Valencia, Calif.). All reactions were carried out in triplicate, and each mRNA copy level was quantified using comparative CT method. Expression of actin was used as an endogenous control in all experiments and relative fold changes were calculated. All data were expressed as the means±standard deviation. The gene-specific forward and reverse primer sequences were • 5′-[…]-3′(SEQ ID NO: 2) and 5′-[…]-3′ (SEQ ID NO: 3) for actin; • 5′-[…]-3′ (SEQ ID NO: 4) and 5′-ggggtgttgaagcaat-3′ (SEQ ID NO: 5) for DDAH-1; • 5′-[…]-3′ (SEQ ID NO: 6) and 5′-[…]-3′ (SEQ ID NO: 7) for DDAH-2.

CCR2 = CCR2 gene expression (real-time RT-PCR) in THP-1 cells; assay type: cell-based; conditions: human THP-1 cells, TNF-α + 10 μM statin, FIG. 2B
Protocol: THP-1 cells were obtained from the American Tissue Type Culture Collection (ATCC). Cells were maintained in RPMI-1640 (Mediatech, Manassas, Va.) containing 10% fetal bovine serum (FBS; Sigma-Aldrich) and 1% penicillin/streptomycin (Sigma-Aldrich), and incubated in a humidified incubator containing 5% CO2/95% air at 37° C. In all experiments, cells were seeded at the concentration of 5×10^5 cells/mL in 12 well plates and then various statins were added to the medium. After 1 h, […] at a final concentration of 100 ng/ml or TNF-[…] at a final concentration of 10 ng/mL was added to the cultures. Cell pellets were collected for RNA and protein isolation.
Total RNA was extracted using the RNeasy Kit (Qiagen, Valencia, Calif.) according to the manufacturer's instructions. After reverse transcription (RT) using the High Capacity cDNA Reverse Transcription Kit (Applied Biosystems, Foster City, Calif.), PCR was performed using an ABI Prism 7500 Sequence Detection System (Applied Biosystems, Foster City, Calif.) and QuantiTect SYBR Green PCR Master Mix (Qiagen, Valencia, Calif.). All reactions were carried out in triplicate, and each mRNA copy level was quantified using comparative CT method. Expression of actin was used as an endogenous control in all experiments and relative fold changes were calculated. All data were expressed as the means±standard deviation. […]

rat model of PAH [2] = assay: RV hypertrophy (RV weight ratio) in MCT rat model of PAH; assay type: in vivo; conditions: intratracheal, twice weekly, 2 mg/ml in PBS, day 42, relative to MCT injection PAH model, FIG. 6
Protocol: (§2) PAH was induced in adult male Sprague-Dawley rats (˜375 to 425 g, n=12, Harlan Laboratories) by a single, subcutaneous injection of monocrotnil (MCT) (60 mg/kg; n=24). Schultze, A. E. and Roth, R. A. J. Toxicol. Environ. Health. B, Crit. Rev. 1(4): 271-346 (1998). The animals injected with MCT were randomly assigned to 2 groups that received intratracheal (I.T.) aerosol instillation (MicroSprayer® Aerosolizer Model IA-1B, PennCentury, Inc.) of PBS twice weekly (200 μl; n=6), and a second group received IT. aerosol instillation of Cerivastatin twice weekly (2 mg/ml in PBS; n=6 I.T. instillations of PBS and Cerivastatin were administered the day of MCT injection until the rats were euthanized on day 42. After recording hemodynamic measurements and collecting blood, the animals were euthanized under deep anesthesia (isoflurane 5%) and the lungs and heart were isolated. The RV free wall was dissected from the left ventricle and interventricular septum (IVS), and the wet weight of each was recorded. RV hypertrophy was obtained as a RV weight/(LV+IVS weights) ratio.

rat model of PAH [3] = assay: Echocardiography in MCT rat model of PAH; assay type: in vivo; conditions: intratracheal, twice weekly, 2 mg/ml in PBS
Protocol: PAH was induced in adult male Sprague-Dawley rats ( 375 to 425 g, n=12, Harlan Laboratories) by a single, subcutaneous injection of monocrotnil (MCT) (60 mg/kg; n=24). Schultze, A. E. and Roth, R. A. J. Toxicol. Environ. Health. B, Crit. Rev. 1(4): 271-346 (1998). The animals injected with MCT were randomly assigned to 2 groups that received intratracheal (I.T.) aerosol instillation (MicroSprayer® Aerosolizer Model IA-1B, PennCentury, Inc.) of PBS twice weekly (200 μl; n=6), and a second group received IT. aerosol instillation of Cerivastatin twice weekly (2 mg/ml in PBS; n=6 I.T. instillations of PBS and Cerivastatin were administered the day of MCT injection until the rats were euthanized on day 42. Echocardiography was performed at day 14, 28, and 42. Right heart catheterization was performed on day 42 before being euthanized. Sedation was induced by placing the rat in an anesthesia induction chamber with gas flow at 1 l/min, and the isoflurane was delivered via vaporizer at 3-4%. After induction, the rat was intubated and remained anesthetized with inhalant isoflurane at 1% for echo and 2% for right heart catheterization. After shaving the chest, 70% isopropyl alcohol was applied as the ultrasound transmission media and transthoracic echocardiography was performed (GE vivid i with […]-RS linear array transducer, 5.0-13.0 MHz). The 2-D modality was applied to measure PA diameter at the level of the pulmonary outflow tract from the parasternal short-axis view. PA acceleration time (PAAT) and PA flow velocity time integral (VTI) were measured using pulse-wave Doppler with the sample volume centrally positioned in the PA distal to the pulmonary valve. Angle correction was used to adjust the pulse-wave cursor such that it was positioned parallel to pulmonary artery flow. By combining PA VTI with the PA cross-sectional area, echocardiographically derived stroke volume was determined. M-mode was applied to measure right ventricular cavity thickness during end diastole using the parasternal long-axis view obtained from the right side of the rat.

rat model of PAH [4] = assay: PA pressure by right heart catheterization in MCT rat model of PAH; assay type: in vivo; conditions: intratracheal, twice weekly, 2 mg/ml in PBS, day 42, relative to MCT injection PAH model
Protocol: as §2, with “42.” for “42. After recording hemodynamic measurements and collecting blood, the animals were euthanized under deep anesthesia (isoflurane 5%) and the lungs and heart were isolated. The RV free wall was dissected from the left ventricle and interventricular septum (IVS), and the wet weight of each was recorded. RV hypertrophy was obtained as a RV weight/(LV+IVS weights) ratio.”
Echocardiography was performed at day 14, 28, and 42. Right heart catheterization was performed on day 42 before being euthanized. Sedation was induced by placing the rat in an anesthesia induction chamber with gas flow at 1 l/min, and the isoflurane was delivered via vaporizer at 3-4%. After induction, the rat was intubated and remained anesthetized with inhalant isoflurane at 1% for echo and 2% for right heart catheterization.
A 1.4-F micromanometer-tipped Millar pressure catheter (Millar Instruments) was used to measure systolic (sPAP), mean (mPAP), and diastolic PA pressure (dPAP) in all rats. […]

DDAH2 = DDAH2 gene expression (real-time RT-PCR) in endothelial cells; assay type: cell-based; conditions: human umbilical endothelial cells, 24 hours, dose dependent, FIG. 1B
Protocol: as §1

Structure (SMILES)	improvement of pulmonary arterial hypertension [1]	effect on the expression of DDAH1 (relative mRNA level) (DDAH1)	CCR2 expression (CCR2)	right ventricular (RV) weight ratio (RV/(LV+septum)) (rat model of PAH [2])	pulmonary artery acceleration time (PAAT) (rat model of PAH [3]; FIG. 7A (plotted in ms))	mean right ventricle thickening (RV cavity thickness) (rat model of PAH [3]; relative to MCT injection PAH model, FIGS. 5A and 5B)	PAAT as percent of the control (rat model of PAH [3]; MCT alone 40.5% of the control, FIG. 7B)	systolic pulmonary artery pressure (sPAP) (rat model of PAH [4]; FIG. 3)	mean pulmonary artery pressure (mPAP) (rat model of PAH [4]; FIG. 4)	effect on the expression of DDAH2 (relative mRNA level) (DDAH2)
CC(C)c1c(C(=O)Nc2ccccc2)c(-c2ccccc2)c(-c2ccc(F)cc2)n1CC[C@@H](O)C[C@@H](O)CC(=O)O [atorvastatin]	not									
COCc1c(C(C)C)nc(C(C)C)c(/C=C/[C@@H](O)C[C@@H](O)CC(=O)O)c1-c1ccc(F)cc1 [cerivastatin, (3R,5S,6E)-7-[4-(4-fluorophenyl)-5-(methoxymethyl)-2,6-bis(propan-2-yl)pyridin-3-yl]-3,5-dihydroxyhept-6-enoic acid]		relatively small and non-concentration dependent effect	reduces CCR2	significantly reduced	significantly increased	significantly reduced	60.7 % of the control	statistically significant decrease	statistically significant decrease	more than 600%
